According to patent US20220087983A1, “ACTIVATING PYRUVATE KINASE R” (FORMA Therapeutics, Inc., priority 2020, published 2022):
Where “and” joins values, the source holds several entries; their conditions need not be identical. Equal values may be shown once.

Tests used:
CYP3A4 = molecular target: T1, CYP3A4 (Homo sapiens, UniProt P08684); assay: Single substrate DDI assay, reversible CYP inhibition in human liver microsomes; type: in vitro ADME
T1 construct: from tissue; host or cells: human liver microsomes
T1 sequence (P08684 whole entry): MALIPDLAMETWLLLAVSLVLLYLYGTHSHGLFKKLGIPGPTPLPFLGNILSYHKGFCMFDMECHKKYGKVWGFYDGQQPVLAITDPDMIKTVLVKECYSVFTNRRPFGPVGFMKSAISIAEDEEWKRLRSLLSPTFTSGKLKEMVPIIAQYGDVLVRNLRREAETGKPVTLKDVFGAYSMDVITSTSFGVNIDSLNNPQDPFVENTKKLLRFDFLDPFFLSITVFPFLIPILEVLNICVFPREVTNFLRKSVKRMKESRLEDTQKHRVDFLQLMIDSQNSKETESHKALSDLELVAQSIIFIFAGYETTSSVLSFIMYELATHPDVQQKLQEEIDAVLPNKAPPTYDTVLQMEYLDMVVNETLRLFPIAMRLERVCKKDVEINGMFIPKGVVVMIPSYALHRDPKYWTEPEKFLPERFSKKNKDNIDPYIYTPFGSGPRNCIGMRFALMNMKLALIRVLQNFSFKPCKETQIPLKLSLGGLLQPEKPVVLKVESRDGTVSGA

Log D7.4 = type: physicochemical; settings: pH 7.4
CYP2C19 = molecular target: T2, CYP2C19 (Homo sapiens, UniProt P33261); assay: Single substrate DDI assay, reversible CYP inhibition in human liver microsomes; type: in vitro ADME
T2 construct: from tissue; host or cells: human liver microsomes
T2 sequence (P33261 whole entry): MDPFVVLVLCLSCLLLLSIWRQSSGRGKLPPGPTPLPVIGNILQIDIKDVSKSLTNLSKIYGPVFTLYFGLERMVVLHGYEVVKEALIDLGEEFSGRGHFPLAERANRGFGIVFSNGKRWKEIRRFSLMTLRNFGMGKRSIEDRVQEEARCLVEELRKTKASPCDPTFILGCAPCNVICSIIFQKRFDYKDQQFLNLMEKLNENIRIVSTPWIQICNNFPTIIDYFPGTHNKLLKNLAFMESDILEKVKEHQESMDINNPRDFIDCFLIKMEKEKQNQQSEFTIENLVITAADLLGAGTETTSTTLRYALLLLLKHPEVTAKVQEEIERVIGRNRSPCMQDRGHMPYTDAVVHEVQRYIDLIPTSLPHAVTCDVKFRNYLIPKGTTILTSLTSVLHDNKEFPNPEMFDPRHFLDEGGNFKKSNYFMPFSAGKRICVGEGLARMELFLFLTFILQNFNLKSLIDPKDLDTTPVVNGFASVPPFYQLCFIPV

CYP1A2 = assay: CYP mRNA induction in cultured human hepatocytes; type: in vitro ADME; settings: donors AIH, EUJ, HC5-40 individually
PKR in mouse RBCs = molecular target: T3, PKR in mouse RBCs (Mus musculus, UniProt P53657); assay: PKR activation in mouse red blood cells; type: cell-based
T3 construct: endogenous in cells; host or cells: mouse RBCs freshly isolated from whole blood
T3 sequence (P53657 whole entry): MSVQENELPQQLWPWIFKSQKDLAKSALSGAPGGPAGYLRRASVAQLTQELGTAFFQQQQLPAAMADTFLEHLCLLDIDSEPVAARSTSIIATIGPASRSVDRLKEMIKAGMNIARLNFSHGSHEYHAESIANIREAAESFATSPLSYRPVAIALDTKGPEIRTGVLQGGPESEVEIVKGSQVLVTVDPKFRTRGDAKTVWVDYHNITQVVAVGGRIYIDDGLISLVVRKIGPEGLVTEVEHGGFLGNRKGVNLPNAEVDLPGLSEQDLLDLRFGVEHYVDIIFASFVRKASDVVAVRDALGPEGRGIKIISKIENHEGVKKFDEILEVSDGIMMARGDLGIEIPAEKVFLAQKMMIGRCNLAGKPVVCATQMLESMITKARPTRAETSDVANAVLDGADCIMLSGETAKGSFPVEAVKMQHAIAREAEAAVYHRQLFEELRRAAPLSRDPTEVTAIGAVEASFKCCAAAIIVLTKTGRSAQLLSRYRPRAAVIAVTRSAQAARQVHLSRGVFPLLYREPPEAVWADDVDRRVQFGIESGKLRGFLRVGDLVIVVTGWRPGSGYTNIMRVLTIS
Text: Mouse RBCs were isolated fresh from whole blood using a Ficoll gradient and assayed with methods similar to those used in the human RBCs assays.

Permeability Papp (A-B) = type: in vitro ADME; settings: not told
[1] = Phase 1: plasma pharmacokinetics in SCD patients; type: in vivo; settings: human, oral, SCD (N = 5), single dose 700 mg
Text: This is a first-in-human (FIH), Phase 1 study of Compound 1 that will characterize the safety, PK, and PD of Compound 1 after a single dose and after repeated dosing first in healthy adult volunteers and then in adolescents or adults with sickle cell disease. Initially, a dose range of Compound 1 in single ascending dose (SAD) escalation cohorts will be explored in healthy subjects. Enrollment of healthy subjects into 2-week multiple ascending dose (MAD) escalation cohorts will be initiated once the safety and PK from at least two SAD cohorts is available to inform the doses for the 2-week MAD portion of the study. The MAD cohorts will then run in parallel to the single dose cohorts. A single dose cohort is planned to understand food effects (FE) on the PK of Compound 1. […] Multiple dose studies in SCD subjects will then be initiated upon completion of MAD studies in healthy volunteers. Compound 1 will be administered in 25 mg and 100 mg tablets delivered orally, prepared as described in Example 1, Step 7.
(§1) In this study, SAD/MAD cohorts are randomized (3 to 1) to receive Compound 1 or placebo (P). Compound 1 was evaluated first in 4 healthy SAD cohorts and 4 healthy MAD (14-day dosing period) cohorts. Based on the safety, and PK/PD profile from HS, Compound 1 is then evaluated in 1 SCD SAD cohort and 2 SCD MAD cohorts. Specifically, based on the safety and pharmacokinetic/pharmacodynamics (PK/PD) profile in healthy volunteer studies, Compound 1 is evaluated in patients (pts) with SCD, first in a single dose (SD or SAD) cohort and then in multiple-dose (MD or MAD) cohorts (14-day and 12-week). Safety assessments include AEs, vital signs, ECGs and laboratory parameters. PK/PD blood sampling was performed on Day 1 (SAD/MAD) and Day 14 (MAD) and up to 72 h after the last dose and at the end-of-study visit. PD parameters included 2,3-DPG, ATP, and p50 in all cohorts with additional PD studies (including oxygen scan) performed only in the SCD cohorts. PD parameters included 2,3-DPG, ATP, p50, RBC deformability with controlled deoxygenation and reoxygenation (Lorrca® oxygen scan) and varying osmolality (Lorrca® osmoscan)). To maintain study blind, pt identifiers were removed when needed.
A potential exposure to the maximum PD response dose range to evaluate in patients with SCD was identified. Based on the safety and PK/PD profile in healthy volunteer studies, a 700 mg single dose was evaluated in patients with SCD (n=7). A single 700 mg dose of Compound 1 was selected to evaluate in patients with SCD to enable daily dosing cohorts at lower exposures.
In the SCD single dose cohort, seven patients received either Compound 1 (n=5) or placebo (n=2).

[2] = Phase 1: safety, adverse events in healthy volunteers; type: in vivo, human
Protocol: as §1
Primary Outcome Measures: • 1. Incidence, frequency, and severity of adverse events (AEs) per CTCAE v5.0 of a single ascending dose and multiple ascending doses of Compound 1 in adult healthy volunteers and SCD patients. Incidence of abnormal laboratory test results (clinical chemistry, endocrine hematology, urinalysis). Change from baseline in vital signs (blood pressure, respiratory rate, heart rate, and oral temperature). […] Area under the plasma concentration-time curve from time zero until last quantifiable time point (AUC0-last) • [Time Frame: Up to 3 weeks of testing] • 6. […]
Among the TEAEs reported in Table 13, TEAEs of grade 2 or less related to Compound 1 in the SAD cohorts included headache (n=1) and transient ventricular tachycardia (n=1), each in a different subject. […] The subject's back-up sample was re-assessed independently, and no lipase elevation was detected.

[3] = system: H295R adreno-cortical carcinoma cell line; assay: Steroid modulation screen in vitro; type: cell-based; settings: tested 200 to 0.0002 μM; only at the top concentration
Protocol: To assess potential effects on steroidogenesis, Compound 1 was screened for steroid modulation in vitro using the H295R adreno-cortical carcinoma cell line (at 200 to 0.0002 μM) and in an assay to monitor cell viability (MTT Kit). Compound 1 indicated steroid modulation potential (% over vehicle) only at 200 μM, the top concentration tested, with 100% cellular viability at concentrations≤20 μM (90% viability at 200 μM).

CYP2C9 = molecular target: T4, CYP2C9 (Homo sapiens, UniProt P11712); assay: Single substrate DDI assay, reversible CYP inhibition in human liver microsomes; type: in vitro ADME
T4 construct: from tissue; host or cells: human liver microsomes
T4 sequence (P11712 whole entry): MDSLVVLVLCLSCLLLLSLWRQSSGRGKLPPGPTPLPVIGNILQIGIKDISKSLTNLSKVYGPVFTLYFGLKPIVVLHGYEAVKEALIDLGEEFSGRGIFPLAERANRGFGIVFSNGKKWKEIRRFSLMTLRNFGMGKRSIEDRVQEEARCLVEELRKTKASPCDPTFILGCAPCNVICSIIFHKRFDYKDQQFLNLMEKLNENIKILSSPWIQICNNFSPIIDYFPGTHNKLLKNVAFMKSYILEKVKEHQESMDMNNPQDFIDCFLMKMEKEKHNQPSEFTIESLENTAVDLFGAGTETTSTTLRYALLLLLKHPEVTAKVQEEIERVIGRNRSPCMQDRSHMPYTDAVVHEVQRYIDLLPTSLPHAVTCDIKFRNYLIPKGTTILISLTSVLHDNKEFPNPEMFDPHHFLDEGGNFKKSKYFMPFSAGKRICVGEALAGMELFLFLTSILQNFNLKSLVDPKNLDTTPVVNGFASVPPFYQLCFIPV

O=C([C@H](CO)c1ccccc1)N1CC2=C(C1)CN(S(=O)(=O)c1cnc3c(c1)OCCO3)C2 (single isomer, unassigned) [Compound 1] showed an IC50 (CYP3A4) of over 30 µM, a logD (Log D7.4) of 1.09 and an IC50 (CYP2C19) of over 30 µM. The “mRNA Fold Induction CYP1A2” value (CYP1A2; 0.033 μM) was 1.07 fold and 0.989 fold and 1.23 fold, the “mRNA Fold Induction CYP1A2” value (CYP1A2; 0.1 μM) was 0.942 fold and 0.958 fold and 1.05 fold and the “mRNA Fold Induction CYP1A2” value (CYP1A2; 0.33 μM) was 0.887 fold and 1.10 fold and 1.20 fold. The “mRNA Fold Induction CYP1A2” value (CYP1A2; 1 μM) was 0.911 fold and 1.20 fold and 1.14 fold, the “mRNA Fold Induction CYP1A2” value (CYP1A2; 3.3 μM) was 0.892 fold and 1.24 fold and 1.11 fold and the “mRNA Fold Induction CYP1A2” value (CYP1A2; 10 μM) was 1.02 fold and 1.33 fold and 1.25 fold. For the same compound, the “Max − Min (%)” value (PKR in mouse RBCs; individual replicates 1-2) was <50% and <100%, the “Mean Max − Min (%)” value (PKR in mouse RBCs; mean) was under 100% and the Papp A→B (Permeability Papp (A-B)) was 54.6 nm/s. For the same compound, the AUC(0-inf) ([1]; geometric mean (geometric CV)) was 7.3 µg·h/mL, the Cmax ([1]; geometric mean (geometric CV)) was 2.58 µg/mL and the half-life ([1]; geometric mean (geometric CV)) was 14.9 h. For the same compound, the Tmax ([1]; median [min, max]) was 2 h, the “Grade 1 headache incidence” value ([2]; HS receiving 14 days) was 28% and the “Grade 1 headache incidence” value ([2]; HS receiving a single dose) was 4%. For the same compound, the “serious adverse events or AEs leading to withdrawal” value ([2]; HV SAD and MAD cohorts) was “No serious adverse events (SAEs) or AEs leading to withdrawal”, the “concentration at which steroid modulation potential (% over vehicle) was indicated” value [3] was 200 µM and the IC50 (CYP2C9) was over 30 µM.
